{
  "source": "BigSolDB 2.1",
  "data": [
    {"smiles": "O=C(O)CCCCCCC(=O)O", "values": [
      {"measurement": "solubility (mole fraction)", "setting": "in THF, 283.15 K", "value": 0.0356},
      {"measurement": "solubility (mole fraction)", "setting": "in THF, 289.75 K", "value": 0.0437},
      {"measurement": "solubility (mole fraction)", "setting": "in THF, 296.85 K", "value": 0.0546},
      {"measurement": "solubility (mole fraction)", "setting": "in THF, 303.75 K", "value": 0.0665},
      {"measurement": "solubility (mole fraction)", "setting": "in THF, 310.75 K", "value": 0.0806},
      {"measurement": "solubility (mole fraction)", "setting": "in THF, 317.95 K", "value": 0.0982},
      {"measurement": "solubility (mole fraction)", "setting": "in THF, 324.95 K", "value": 0.117},
      {"measurement": "solubility (mole fraction)", "setting": "in THF, 331.95 K", "value": 0.141},
      {"measurement": "solubility (mole fraction)", "setting": "in acetone, 283.15 K", "value": 0.006},
      {"measurement": "solubility (mole fraction)", "setting": "in acetone, 289.95 K", "value": 0.00833},
      {"measurement": "solubility (mole fraction)", "setting": "in acetone, 296.85 K", "value": 0.0115},
      {"measurement": "solubility (mole fraction)", "setting": "in acetone, 303.75 K", "value": 0.0154},
      {"measurement": "solubility (mole fraction)", "setting": "in acetone, 310.75 K", "value": 0.0208},
      {"measurement": "solubility (mole fraction)", "setting": "in acetone, 317.55 K", "value": 0.0292},
      {"measurement": "solubility (mole fraction)", "setting": "in acetone, 322.75 K", "value": 0.035},
      {"measurement": "solubility (mole fraction)", "setting": "in ethanol, 283.25 K", "value": 0.0158},
      {"measurement": "solubility (mole fraction)", "setting": "in ethanol, 290.35 K", "value": 0.021},
      {"measurement": "solubility (mole fraction)", "setting": "in ethanol, 297.05 K", "value": 0.0281},
      {"measurement": "solubility (mole fraction)", "setting": "in ethanol, 303.85 K", "value": 0.0374},
      {"measurement": "solubility (mole fraction)", "setting": "in ethanol, 310.95 K", "value": 0.0491},
      {"measurement": "solubility (mole fraction)", "setting": "in ethanol, 317.85 K", "value": 0.0627},
      {"measurement": "solubility (mole fraction)", "setting": "in ethanol, 324.85 K", "value": 0.0795},
      {"measurement": "solubility (mole fraction)", "setting": "in ethyl acetate, 283.15 K", "value": 0.00167},
      {"measurement": "solubility (mole fraction)", "setting": "in ethyl acetate, 289.95 K", "value": 0.00227},
      {"measurement": "solubility (mole fraction)", "setting": "in ethyl acetate, 296.85 K", "value": 0.0031},
      {"measurement": "solubility (mole fraction)", "setting": "in ethyl acetate, 303.95 K", "value": 0.00462},
      {"measurement": "solubility (mole fraction)", "setting": "in ethyl acetate, 310.95 K", "value": 0.0065},
      {"measurement": "solubility (mole fraction)", "setting": "in ethyl acetate, 317.75 K", "value": 0.00902},
      {"measurement": "solubility (mole fraction)", "setting": "in ethyl acetate, 324.85 K", "value": 0.0125},
      {"measurement": "solubility (mole fraction)", "setting": "in ethyl acetate, 331.75 K", "value": 0.0186},
      {"measurement": "solubility (mole fraction)", "setting": "in isopropanol, 283.15 K", "value": 0.0145},
      {"measurement": "solubility (mole fraction)", "setting": "in isopropanol, 289.95 K", "value": 0.0198},
      {"measurement": "solubility (mole fraction)", "setting": "in isopropanol, 296.95 K", "value": 0.0271},
      {"measurement": "solubility (mole fraction)", "setting": "in isopropanol, 303.55 K", "value": 0.0368},
      {"measurement": "solubility (mole fraction)", "setting": "in isopropanol, 310.95 K", "value": 0.0486},
      {"measurement": "solubility (mole fraction)", "setting": "in isopropanol, 317.95 K", "value": 0.0639},
      {"measurement": "solubility (mole fraction)", "setting": "in isopropanol, 324.75 K", "value": 0.0816},
      {"measurement": "solubility (mole fraction)", "setting": "in methanol, 283.25 K", "value": 0.0179},
      {"measurement": "solubility (mole fraction)", "setting": "in methanol, 290.35 K", "value": 0.0242},
      {"measurement": "solubility (mole fraction)", "setting": "in methanol, 297.05 K", "value": 0.0322},
      {"measurement": "solubility (mole fraction)", "setting": "in methanol, 303.85 K", "value": 0.0443},
      {"measurement": "solubility (mole fraction)", "setting": "in methanol, 310.95 K", "value": 0.0572},
      {"measurement": "solubility (mole fraction)", "setting": "in methanol, 317.85 K", "value": 0.0748},
      {"measurement": "solubility (mole fraction)", "setting": "in methanol, 324.85 K", "value": 0.0951},
      {"measurement": "solubility (mole fraction)", "setting": "in n-propanol, 283.15 K", "value": 0.012},
      {"measurement": "solubility (mole fraction)", "setting": "in n-propanol, 289.85 K", "value": 0.017},
      {"measurement": "solubility (mole fraction)", "setting": "in n-propanol, 296.75 K", "value": 0.0233},
      {"measurement": "solubility (mole fraction)", "setting": "in n-propanol, 303.85 K", "value": 0.0308},
      {"measurement": "solubility (mole fraction)", "setting": "in n-propanol, 310.75 K", "value": 0.0422},
      {"measurement": "solubility (mole fraction)", "setting": "in n-propanol, 317.75 K", "value": 0.0559},
      {"measurement": "solubility (mole fraction)", "setting": "in n-propanol, 325.05 K", "value": 0.0718},
      {"measurement": "solubility (mole fraction)", "setting": "in water, 283.25 K", "value": "9.14e-05"},
      {"measurement": "solubility (mole fraction)", "setting": "in water, 290.25 K", "value": 0.000131},
      {"measurement": "solubility (mole fraction)", "setting": "in water, 297.15 K", "value": 0.0002},
      {"measurement": "solubility (mole fraction)", "setting": "in water, 303.85 K", "value": 0.000291},
      {"measurement": "solubility (mole fraction)", "setting": "in water, 310.85 K", "value": 0.000439},
      {"measurement": "solubility (mole fraction)", "setting": "in water, 318.15 K", "value": 0.000662},
      {"measurement": "solubility (mole fraction)", "setting": "in water, 325.15 K", "value": 0.00107},
      {"measurement": "solubility (mole fraction)", "setting": "in water, 332.45 K", "value": 0.0017},
      {"measurement": "solubility (mole fraction)", "setting": "in water, 339.15 K", "value": 0.00265}
    ]}
  ]
}
